Data set [1] can be described thus: Bulk density determination of felbamate (10 ml graduated cylinder, 50 taps). The class given is physicochemical. From the text:
One important characteristic is tapped bulk density, or simply tapped (or tap) density, that is the maximum packing density of a powder (or blend of powders) achieved under the influence of well defined, externally applied forces (see, http://en.wikipedia.org/wiki/Bulk_density). The minimum packed volume thus achieved depends on a number of factors including particle size distribution, true density, particle shape and cohesiveness due to surface forces including moisture. Therefore, the tap density of a material can be used to predict both its flow properties and its compressibility. These two parameters are important in the overall tabletting process, which requires that loose powders be compacted into a durable solid form with the correct mechanical strength, porosity and dissolution characteristics. These parameters are also important in the formation of oral suspensions, which ideally contain particles of high bulk density, enabling even dispersion of the particles throughout the suspension after shaking and before consumption.
Felbamate (1.211 gm) purified by the above process (Example 3) was poured into a 10 ml graduated cylinder. The untapped volume of felbamate was 3.5 ml, resulting in an untapped bulk density of 0.35 gm/ml which was greater than the untapped bulk density of felbamate prepared by other methods (see below, Examples 9 and 10). The graduated cylinder was tapped until the felbamate (50 taps) no longer settled. The volume of felbamate after tapping was 2.2 ml, resulting in a tapped bulk density of 0.55 gm/ml.
Felbamate (0.972 gm) synthesized by the process disclosed in WO 94/06737 was poured into a 10 ml graduated cylinder. The untapped volume of felbamate was 5.1 ml, resulting in an untapped bulk density of 0.19 gm/ml. The graduated cylinder was tapped until the felbamate (50 taps) no longer settled. The volume of felbamate after tapping was 3.2 ml, resulting in a tapped bulk density of 0.30 gm/ml.
Felbamate (2 gm) synthesized by the process disclosed in U.S. Pat. No. 4,868,327 was purified by adding to 20 ml of methanol, heating the methanol to reflux to obtain a clear solution, cooling the solution to room temperature over three hours with stirring, and isolating the felbamate by filtration and drying under vacuum at 50° C. Felbamate (0.927 gm) purified by this process was poured into a 10 ml graduated cylinder. The untapped volume of felbamate was 6.5 ml, resulting in an untapped bulk density of 0.14 gm/ml. The graduated cylinder was tapped until the felbamate (50 taps) no longer settled. The volume of felbamate after tapping was 2.9 ml, resulting in a tapped bulk density of 0.32 gm/ml.

Assay in data set [2]: as above
Type of data set: physicochemical. The source holds these as a separate data set.

Structures are written as SMILES.

As to `NC(=O)OCC(COC(N)=O)c1ccccc1` [Felbamate, 2-phenyl-1,3-propanediol dicarbamate], the untapped bulk density in data set [1] (Table I, U.S. Pat. No. 4,868,327) turned out to be 0.14 g/mL; in data set [1] (Table I, WO 94/06737), 0.19 g/mL; in data set [1] (Table I, purification process as disclosed in Example 3), 0.35 g/mL; in data set [1] (felbamate by process of U.S. Pat. No. 4,868,327, recrystallised from methanol (Example 10)), 0.14 gm/ml; in data set [1] (felbamate purified by process of Example 3, 1.211 gm in 10 ml cylinder (Example 8)), 0.35 gm/ml; in data set [1] (felbamate synthesized by process of WO 94/06737 (Example 9)), 0.19 gm/ml. For the same compound, the tapped bulk density in data set [1] (Table I, U.S. Pat. No. 4,868,327, 50 taps) amounted to 0.32 g/mL; in data set [1] (Table I, WO 94/06737, 50 taps), 0.3 g/mL; in data set [1] (Table I, purification process as disclosed in Example 3, 50 taps) it was 0.55 g/mL; in data set [1] (felbamate by process of U.S. Pat. No. 4,868,327, recrystallised from methanol, 50 taps (Example 10)), 0.32 gm/ml; in data set [1] (felbamate purified by process of Example 3, 50 taps (Example 8)), 0.55 gm/ml; in data set [1] (felbamate purified from methanol-water (Example 3)), 0.5 gm/ml. Moreover, the tapped bulk density in data set [1] (felbamate purified from tetrahydrofuran-water (Example 5)) is 0.4 gm/ml; in data set [1] (felbamate synthesized by process of WO 94/06737, 50 taps (Example 9)), 0.30 gm/ml; in data set [2] (felbamate purified from acetonitrile-water (Example 4)), 0.55 gm/ml; in data set [2] (felbamate purified from isopropanol-water (Example 6)) it was 0.54 gm/ml; in data set [2] (felbamate purified from water (Example 7)) it was 0.35 gm/ml.

The record behind these values is patent publication US20110091728A1, “Felbamate With Improved Bulk Density” (priority 2007, published 2011).
